Measured values published in ChEMBL document CHEMBL3588836, “Development of Quinoline-2,4(1H,3H)-diones as Potent and Selective Ligands of the Cannabinoid Type 2 Receptor” (J Med Chem, 2015).
pEC50, pIC50: −log10 of the molar value.

How the values were obtained:
Cannabinoid receptor 1 [1] = molecular target: T1, Cannabinoid receptor 1 (Homo sapiens, UniProt P21554); test: Agonist activity at CB1R (unknown origin) CHO cells stably expressing Galpha16 assessed as increase in intracellular calcium level by microplate reader based assay; type: functional, cell-based
T1 sequence (P21554 whole entry): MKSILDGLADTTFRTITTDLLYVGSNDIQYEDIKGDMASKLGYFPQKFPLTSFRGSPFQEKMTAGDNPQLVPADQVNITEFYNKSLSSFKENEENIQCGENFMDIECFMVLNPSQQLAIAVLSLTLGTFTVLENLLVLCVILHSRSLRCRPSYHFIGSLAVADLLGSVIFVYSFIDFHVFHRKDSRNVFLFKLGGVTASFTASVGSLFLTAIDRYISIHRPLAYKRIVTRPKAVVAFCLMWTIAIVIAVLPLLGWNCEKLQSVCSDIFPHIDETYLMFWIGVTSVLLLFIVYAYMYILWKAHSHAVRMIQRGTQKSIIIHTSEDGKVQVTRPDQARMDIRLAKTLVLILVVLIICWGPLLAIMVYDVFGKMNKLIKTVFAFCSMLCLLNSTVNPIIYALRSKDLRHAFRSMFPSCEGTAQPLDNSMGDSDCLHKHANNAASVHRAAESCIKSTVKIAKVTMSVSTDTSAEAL

Cannabinoid receptor 2 [2] = molecular target: T2, Cannabinoid receptor 2 (Homo sapiens, UniProt P34972); test: Agonist activity at CB2R (unknown origin) CHO cells stably expressing Galpha16 assessed as increase in intracellular calcium level by microplate reader based assay; type: functional, cell-based; conditions: for pEC50: read-out: EC50; for EC50: read-out: pEC50 (converted)
T2 sequence (P34972 whole entry): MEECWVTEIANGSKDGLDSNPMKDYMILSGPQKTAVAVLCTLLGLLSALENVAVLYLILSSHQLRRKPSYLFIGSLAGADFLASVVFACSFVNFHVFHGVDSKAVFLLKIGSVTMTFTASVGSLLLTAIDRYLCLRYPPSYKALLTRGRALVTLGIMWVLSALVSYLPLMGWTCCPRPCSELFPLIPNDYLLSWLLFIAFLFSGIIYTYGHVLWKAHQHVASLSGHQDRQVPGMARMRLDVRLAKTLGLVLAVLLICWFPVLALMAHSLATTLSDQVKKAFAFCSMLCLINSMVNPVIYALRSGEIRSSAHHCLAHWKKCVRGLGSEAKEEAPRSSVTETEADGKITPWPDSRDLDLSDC

CHO [3] = test: Selectivity index, ratio of EC50 for CB1R (unknown origin) CHO cells stably expressing Galpha16 to EC50 for CB2R (unknown origin) CHO cells stably expressing Galpha16; type: cell-based; conditions: Homo sapiens
Cannabinoid receptor 2 [4] = molecular target: T2, Cannabinoid receptor 2; test: Agonist activity at CB2R (unknown origin) CHO cells stably expressing Galpha16 assessed as increase in intracellular calcium level by microplate reader based assay relative to CP55940; type: functional, cell-based
Cannabinoid receptor 2 [5] = molecular target: T2, Cannabinoid receptor 2; test: Antagonist activity against CB2R (unknown origin) CHO cells stably expressing Galpha16 assessed as inhibition of CP55940-induced increase in intracellular calcium level pre-treated 10 mins before CP55940 stimulation by microplate reader based assay; type: functional, cell-based
Cannabinoid receptor 1 [6] = molecular target: T1, Cannabinoid receptor 1; type: functional, cell-based, CHO
Cannabinoid receptor 2 [7] = molecular target: T2, Cannabinoid receptor 2; test: Antagonist activity against CB2R (unknown origin) CHO cells stably expressing Galpha16 assessed as inhibition of CP55940-induced increase in intracellular calcium level pre-treated 10 mins before CP55940 stimulation by microplate reader based assay relative to […]; type: functional, cell-based
CHO [8] = test: Selectivity index, ratio of IC50 for CB1R (unknown origin) CHO cells stably expressing Galpha16 to IC50 for CB2R (unknown origin) CHO cells stably expressing Galpha16; type: cell-based; conditions: Homo sapiens

SMILES | pEC50 (Cannabinoid receptor 1 [1]) | pEC50 (Cannabinoid receptor 2 [2]) | Ratio EC50 (CHO [3]) | Emax (Cannabinoid receptor 2 [4]) | pIC50 (Cannabinoid receptor 2 [5]) | pIC50 (Cannabinoid receptor 1 [6]) | Emax (Cannabinoid receptor 2 [7]) | Ratio IC50 (CHO [8]) | EC50 (Cannabinoid receptor 2 [2])
CCCCCN1C(=O)/C(=C/NC2CCCCC2)C(=O)c2cccc(CC)c21 | < 5.00 | < 5.00 |  |  |  |  |  |  | 
CCCCN1C(=O)/C(=C/NCC2CCC2)C(=O)c2cccc(C)c21 | < 5.00 | 6.66 | > 45.5 | 87.7% |  |  |  |  | 
CCCCN1C(=O)/C(=C/NC2CCCC2)C(=O)c2cccc(C)c21 | < 5.00 | 7.24 | > 172 | 129% |  |  |  |  | 
CCCCN1C(=O)/C(=C/NC(C)(C)C)C(=O)c2cccc(C)c21 | < 5.00 | 7.70 | > 500 | 135% |  |  |  |  | 
CCCCN1C(=O)/C(=C/NC2CCCCC2)C(=O)c2c(C)cccc21 | < 5.00 | 6.47 | > 29.3 | 104% |  |  |  |  | 
CCCCN1C(=O)/C(=C/N[C@H]2CC[C@H](O)CC2)C(=O)c2cccc(C)c21 | < 5.00 | < 5.00 |  |  |  |  |  |  | 
CCCCN1C(=O)/C(=C/Nc2ccc(F)cc2)C(=O)c2cccc(C)c21 | < 5.00 | < 5.00 |  |  |  |  |  |  | 
CCCCN1C(=O)/C(=C/NC(C)C)C(=O)c2cccc(C)c21 | < 5.00 | < 5.00 |  |  |  |  |  |  | 
CCCCCN1C(=O)/C(=C/NC2CCCCC2)C(=O)c2cc(OC)cc(C)c21 |  |  |  |  | 7.03 | < 5.00 | 106% | > 107 | 
CCCCCN1C(=O)/C(=C/NC2CCCCC2)C(=O)c2cccc(C)c21 | < 5.00 | 6.49 | > 31.3 | 70.3% |  |  |  |  | 
CCCCCN1C(=O)/C(=C/NC2CCCCC2)C(=O)c2cc(Br)ccc21 |  |  |  |  | 5.77 | < 5.00 | 96.8% | > 5.95 | 
CCCCN1C(=O)/C(=C/Nc2ccccn2)C(=O)c2cccc(C)c21 | < 5.00 | 5.62 | > 4.18 | 47.2% |  |  |  |  | 
CCCCOc1c(OC)ccc2cc(C(=O)NCCc3ccc(N)cc3)c(=O)[nH]c12 |  |  |  |  |  | < 5.00 | 102% | > 18.3 | 
O=C(NCC1CCOCC1)c1cnc(Nc2ccc(Cl)cc2Cl)nc1C(F)(F)F [GW842166X] | < 5.00 | 6.36 | > 22.9 | 91.6% |  |  |  |  | 
Cc1cccc2c1N(CC1CC1)C(=O)/C(=C/NC(C)(C)C)C2=O | < 5.00 | 6.98 | > 96.2 | 140% |  |  |  |  | 
CCCN1C(=O)/C(=C/NC(C)(C)C)C(=O)c2cccc(C)c21 | < 5.00 | 7.44 | > 275 | 126% |  |  |  |  | 
CCCCCN1C(=O)/C(=C/NC2CCCCC2)C(=O)c2cc(OC(F)(F)F)ccc21 |  |  |  |  | < 5.00 | < 5.00 |  |  | 
CCCCN1C(=O)/C(=C/NC2CCCCC2)C(=O)c2cc(OC)ccc21 |  |  |  |  | 5.38 | < 5.00 | 99.7% | > 2.39 | 
CCN1C(=O)/C(=C/NC2CCCCC2)C(=O)c2cccc(C)c21 | < 5.00 | 4.75 | > 0.559 | 95% |  |  |  |  | 
CCCCN1C(=O)/C(=C/NCC2CC2)C(=O)c2cccc(C)c21 | < 5.00 | 6.90 | > 78.7 | 43.4% |  |  |  |  | 
C=CCCN1C(=O)/C(=C/NC2CCCCC2)C(=O)c2cccc(C)c21 | < 5.00 | 6.13 | > 13.4 | 135% |  |  |  |  | 
CCCCCN1C(=O)/C(=C/NC23CC4CC(CC(C4)C2)C3)C(=O)c2cc(OC)cc(C)c21 |  |  |  |  | 7.34 | < 5.00 | 102% | > 221 | 
CCCCCN1C(=O)/C(=C/NC23CC4CC(CC(C4)C2)C3)C(=O)c2cc(Cl)ccc21 |  |  |  |  | 6.02 | < 5.00 | 100% | > 10.4 | 
CCCCN1C(=O)/C(=C/NN2CCCCC2)C(=O)c2cccc(C)c21 | < 5.00 | 6.00 | > 10.1 | 58% |  |  |  |  | 
Cc1c(C(=O)NN2CCCCC2)nn(-c2ccc(Cl)cc2Cl)c1-c1ccc(Cl)cc1 |  |  |  |  |  |  | 100% |  | 
CCCCCN1C(=O)/C(=C/NC2CCCCC2)C(=O)c2cc(C(C)(C)C)ccc21 |  |  |  |  | < 5.00 | < 5.00 |  |  | 
CCCCN1C(=O)/C(=C/NC2CCCCC2)C(=O)c2cccc(CC)c21 | < 5.00 | 6.10 | > 12.5 | 86.9% |  |  |  |  | 800 nM
CCCCN1C(=O)/C(=C/NCC(C)C)C(=O)c2cccc(C)c21 | < 5.00 | 7.35 | > 226 | 99% |  |  |  |  | 44 nM
CCCCN1C(=O)/C(=C/NC2CCCCC2)C(=O)c2cccc(Cl)c21 | < 5.00 | < 5.00 |  |  |  |  |  |  | 
CCCCN1C(=O)/C(=C/NC(C)C(C)C)C(=O)c2cccc(C)c21 (stereo not given) | < 5.00 | 7.08 | > 121 | 120% |  |  |  |  | 83 nM
